This test concerns Hydra vulgaris. Description: Whole-body contraction of Hydra (Protocol II). The format is in vivo. As to conditions: for Contraction rate compared with light alone: Fisher's Exact Test, MM 2 P<0.00001, MM 1 P=0.0199, MM 3 P=0.5325, MM 4 P=0.0439; for Contraction peaks relative to sham stimulus: sham light, 0% laser duty cycle; for Signaling / contraction in Hydra (summary): in vivo, MM + light. The protocol: FIGS. 20A-20N—MM induce ICW and muscle contraction in vivo. (a) Image of a Hydra loaded into a microfluidic chamber with anatomical regions marked. Scale bar is 100 μm and applies to (a-c). (b) MM 1 (24 μM) loaded into Hydra for 24 h. (c) A Hydra expressing GCaMP7b in endodermal epitheliomuscular cells. The stimulation regions used for Protocols I and II are marked. Protocol 1 was used for body column stimulation (1 s pulse to a 10 μm diameter circular area) to trigger regional ICW. Protocol II was used for oral region stimulation (2 s pulse to the oral region, ~1000-2000 μm^2) to trigger whole-body contraction. (d) A regional ICW in a Hydra treated with MM 1 and stimulated with 405-nm light via Protocol I. The indicated times represent the time after stimulation at which the image was taken. Scale bar applies to both images and is 100 μm. (e-i) Responses observed from Hydra treated with (e) MM 1, (f) MM 2, (g) MM 3, (h) MM 4, or (i) DMSO control (“C”) and stimulated for 1 s using Protocol I. Bold, colored traces represent the average trace (n=25 across 5 Hydra). Gray traces represent individual experiments. (j) Bar graph showing ICW response rate and (k) box-and-whisker plot showing ICW delay time of Hydra stimulated using Protocol I across MM treatment conditions (n=25 experiments across at least 5 Hydra per condition). ICW responses were defined as ΔF/F0>1. (1) Representative contraction in a Hydra treated with MM 2 and stimulated via Protocol II. Scale bar applies to both images and is 100 μm. (m) Representative GCaMP7b fluorescence trace in a Hydra treated with MM 2 and stimulated using Protocol II. (n) Bar graph showing contractile response rates across treatment conditions for Hydra stimulated for 2 s using Protocol II (at least 50 experiments across ≥5 Hydra per condition). Error bars in bar graphs represent the standard error of the mean. See Example 6 for more info on the calculation of ICW and contractile response rates. For all plots, cyan lines indicate the time of stimulus with 405-nm light (9.0×10^2 W cm^−2), during which no data was collected. * P-value<0.05, ** P-value<0.01, *** P-value<0.001, **** P-value<0.0001.
Prior to stimulation experiments, Hydra were loaded with MM by incubating with solutions containing 24 μM of MM for 24 h (FIG. 20B). Distinct stimulation protocols were employed to cause either local ICW or whole-body contraction (FIG. 20C). First, treatment of MM-loaded Hydra with pulses of laser light administered to a small region of the body column (Protocol I) caused ICW emanating from the site of stimulation (FIGS. 20D and 21). Similar to ICW evoked in vitro, these ICW propagated throughout the Hydra body column according to the degree of electrical connectivity of the stimulated cells. Distinct propagation kinetics were observed when stimulating different regions of Hydra simultaneously. Second, MM activation was used to attempt to drive whole-body Hydra contractions by administering laser stimuli to the oral region (Protocol II).
Hydra Preparation, Stimulation, and Imaging: Hydra were raised in Hydra medium containing CaCl2·2H2O, MgCl2·6H2O, KNO3, NaHCO3, and MgSO4 in deionized water at 18 °C in a light-cycled (12 h light, 12 h dark) incubator. Hydra were fed with an excess of freshly brined Artemia Nauplii (Brine Shrimp Direct, Ogden, UT, #BSEP8Z) three times a week. All experiments were performed at room temperature after starving the animals for 2 days. The transgenic line expressing GCaMP6s under the Actin promoter in neurons was generated by embryonic microinjection by the Yuste lab at Columbia University (Addgene: plasmid #102558). The transgenic line expressing GCaMP7b under the Ef1α promoter in endodermal epitheliomuscular tissue was generated by embryonic microinjection in a collaboration by the Robinson lab (Rice University) and the Juliano Lab (University of California, Davis).
Hydra were incubated with chosen MM 24 h before imaging. […]

Consider `CC1Cc2ccc3ccccc3c2C1=C1c2ccccc2Sc2cc(NCCN(C)C)ccc21` (centres unmarked) [MM 1], for which the “Contraction rate compared with light alone” value is listed as “at a significantly higher rate than light alone” and the “Contraction peaks relative to sham stimulus” value is listed as “do not occur in concert with sham stimulus”. Also, the “Contraction peaks relative to light stimulus” value (Protocol II, with light) is given as “most often occur in concert with stimuli”. Besides, where the note is “with light, Protocol II”, the “Success Rate (contractile response rate)” value worked out at 68%, the “Total Null” value is recorded as 14 and the “Total Successes (contractile responses)” value is 48. In addition, for the setting “without light (sham)”, the “Success Rate (contractile response rate)” value amounted to 29%, the “Total Null” value was 28 and the “Total Successes (contractile responses)” value is listed as 13.
In the case of `CC1Cc2cc(NCCN(C)C)c3ccccc3c2C1=C1c2ccccc2-c2ccccc21` (centres unmarked) [MM 3], the “Contraction rate compared with light alone” value is reported as “did not elicit contraction at a significantly higher rate than light alone”, the “Signaling / contraction in Hydra (summary)” value is reported as “Small responses were observed” and the “Contraction peaks relative to sham stimulus” value is on record as “do not occur in concert with sham stimulus”. For the setting “Protocol II, with light”, the “Contraction peaks relative to light stimulus” value is “occasionally follow stimuli”. Also, for the setting “with light, Protocol II”, the “Success Rate (contractile response rate)” value is 38%, the “Total Null” value was found to be 2 and the “Total Successes (contractile responses)” value was 18. Moreover, for the setting “without light (sham)”, the “Success Rate (contractile response rate)” value is given as 12%, the “Total Null” value worked out at 17 and the “Total Successes (contractile responses)” value stood at 12.
Turning to `CN(C)CCNc1ccc2c(c1)Sc1ccccc1C2=C1CCc2ccc3ccccc3c21` [MM 4], the “Contraction rate compared with light alone” value is given as “more effective than light alone”, the “Signaling / contraction in Hydra (summary)” value was “able to drive non-trivial signaling behavior in vivo” and the “Contraction peaks relative to sham stimulus” value is “do not occur in concert with sham stimulus”. In addition, the “Contraction peaks relative to light stimulus” value (Protocol II, with light) was “most often occur in concert with stimuli”. Where the note is “with light, Protocol II”, the “Success Rate (contractile response rate)” value is 65%, the “Total Null” value was found to be 5 and the “Total Successes (contractile responses)” value is listed as 36. Moreover, under “without light (sham)”, the “Success Rate (contractile response rate)” value is on record as 20%, the “Total Null” value stood at 15 and the “Total Successes (contractile responses)” value is 6.

For the origin of these results see patent US20260373497A1, “MOLECULAR MACHINES STIMULATE INTERCELLULAR CALCIUM WAVES AND CAUSE MUSCLE CONTRACTION” (William Marsh Rice University, priority 2022, published 2026).
